One assay deals with E. coli TK-3. Kind of assay: Antibacterial activity (MIC, agar dilution) against E. coli TK-3*. As to conditions: Escherichia coli. Format: cell-based. The procedure: (§1) According to Chemotherapy, vol. 29, No. 1, pp. 76-79 (1981), bacterium was cultured in peptone broth manufactured by Eiken Kagaku K.K. at 37° C. for 20 hours to prepare a bacterial solution of 10^8 cells/ml, and one loopful of the bacterial solution was inoculated into Heart Infusion agar medium (manufactured by Eiken Kagaku K.K.) containing a drug, cultured at 37° C. for 20 hours, after which growth of bacterium was observed. The minimum concentration at which the growth of bacterium was prevented was indicated as MIC (μg/ml).
(§2) *means that β-lactamaseproducing bacteria.

The subject of another assay is S. marcescens W-8. As to the kind of experiment: Antibacterial activity (MIC, agar dilution) against S. marcescens W-8*. The class given is cell-based. As to conditions: Serratia marcescens. The procedure: as §1, §2
(Agar dilution tests growth on a series of plates holding different concentrations.)

Setting [1] is: W8, S. marcescens W-8* (β-lactamase-producing bacteria), Heart Infusion agar, 37° C., 20 hours, one loopful of 10^8 cells/ml, read-out: MIC.
Setting [2] is: TK3, E. coli TK-3* (β-lactamase-producing bacteria), Heart Infusion agar, 37° C., 20 hours, one loopful of 10^8 cells/ml, read-out: MIC.

≈ marks a conversion by molar mass, not a printed value. Like-named read-outs stand apart in the source and are kept apart here.

As a reminder, the MIC is the lowest concentration found to suppress growth. Consider `NC(=O)NN1CCN([C@]2(C(=O)O)CN3C(=O)[C@@H](NC(=O)[C@@H](c4ccc(O)c(O)c4)S(=O)(=O)O)[C@H]3S2)C1=O` [compound 41], for which the MIC was 3.13 µg/mL (≈ 5.58 µM) against E. coli TK-3 (TK3, 20 h) and 1.56 µg/mL (≈ 2.78 µM) in the assay with S. marcescens W-8 (setting [1]).
On to `N#CC=CC=NN1CCN([C@]2(C(=O)O)CN3C(=O)[C@@H](NC(=O)C(C(=O)O)c4ccccc4)[C@H]3S2)C1=O` (stereo partly shown) [compound 31], for which the minimal inhibitory concentration (MIC) in the assay on E. coli TK-3 (setting [2]) turned out to be 0.2 µg/mL (≈ 0.39 µM); with S. marcescens W-8 (setting [1]) it was 0.1 µg/mL (≈ 0.195 µM).
As for `CC(=O)Oc1cc(C(C(=O)N[C@@H]2C(=O)N3C[C@@](C(=O)O)(N4CCN(NC(N)=O)C4=O)S[C@H]23)S(=O)(=O)O)cc(Cl)c1OC(C)=O` (stereo partly shown) [compound 22], the MIC with E. coli TK-3 (setting [2]) was 6.25 µg/mL (≈ 9.2 µM); in the assay on S. marcescens W-8 (setting [1]), 12.5 µg/mL (≈ 18.4 µM).
`NC(=O)NN1CCN([C@]2(C(=O)O)CN3C(=O)[C@@H](NC(=O)[C@@H](c4ccc(O)cc4F)S(=O)(=O)O)[C@H]3S2)C1=O` [compound 38]: the minimum inhibitory concentration (MIC) in the assay with E. coli TK-3 (setting [2]) was 1.56 µg/mL (≈ 2.77 µM); with S. marcescens W-8 (W8, 20 h), 0.78 µg/mL (≈ 1.39 µM).
Consider `CC(=O)Oc1ccc(C(C(=O)N[C@@H]2C(=O)N3C[C@@](C(=O)O)(N4CCN(NC(N)=O)C4=O)S[C@H]23)S(=O)(=O)O)cc1OC(C)=O` (stereo partly shown) [compound 28], for which the MIC amounted to 6.25 µg/mL (≈ 9.7 µM) in the assay on E. coli TK-3 (setting [2]) and 3.13 µg/mL (≈ 4.86 µM) in the assay with S. marcescens W-8 (W8, 20 h).
In the case of `O=C(O)C=CC=NN1CCN([C@]2(C(=O)O)CN3C(=O)[C@@H](NC(=O)C(C(=O)O)c4ccccc4)[C@H]3S2)C1=O` (stereo partly shown) [compound 11], the minimum inhibitory concentration (MIC) worked out at 0.2 µg/mL (≈ 0.376 µM) with E. coli TK-3 (setting [2]) and 0.1 µg/mL (≈ 0.188 µM) in the assay on S. marcescens W-8 (setting [1]).
As to `O=C(O)C(C(=O)N[C@@H]1C(=O)N2C[C@@](C(=O)O)(N3CCN(NC(=O)C(F)(F)F)C3=O)S[C@H]12)c1ccc(O)cc1` (stereo partly shown) [compound 13], the figures for the MIC with E. coli TK-3 (setting [2]) and in the assay with S. marcescens W-8 (setting [1]) were 12.5 µg/mL (≈ 22.3 µM) and 3.13 µg/mL (≈ 5.57 µM), respectively.
The matching figures for `CCN1CCN(C(=O)NN2CCN([C@]3(C(=O)O)CN4C(=O)[C@@H](NC(=O)C(C(=O)O)c5ccc(O)cc5)[C@H]4S3)C2=O)C(=O)C1=O` (stereo partly shown) [compound 14]: 3.13 µg/mL (≈ 4.94 µM) and 3.13 µg/mL (≈ 4.94 µM).
Regarding `NC(=O)NN1CCN([C@]2(C(=O)O)CN3C(=O)[C@@H](NC(=O)[C@@H](c4cc(O)c(O)cc4Cl)S(=O)(=O)O)[C@H]3S2)C1=O` [compound 42], the MIC in the assay with E. coli TK-3 (setting [2]) turned out to be 0.2 µg/mL (≈ 0.336 µM); against S. marcescens W-8 (W8, 20 h), 0.39 µg/mL (≈ 0.655 µM).
For `O=C(N[C@@H]1C(=O)N2C[C@@](C(=O)O)(N3CCN(N=C4SCCS4)C3=O)S[C@H]12)C(c1ccccc1)S(=O)(=O)O` (stereo partly shown) [compound 26] the same measures were at most 0.1 µg/mL and 0.39 µg/mL (≈ 0.664 µM).
Consider `NC(=O)NN1CCN([C@]2(C(=O)O)CN3C(=O)[C@@H](NC(=O)[C@@H](c4ccc(O)cc4Cl)S(=O)(=O)O)[C@H]3S2)C1=O` [compound 37], for which the MIC with E. coli TK-3 (TK3, 20 h) was 0.78 µg/mL (≈ 1.35 µM); in the assay with S. marcescens W-8 (setting [1]), 0.2 µg/mL (≈ 0.345 µM).
Regarding `CC(=O)Oc1cc(Cl)c(C(C(=O)N[C@@H]2C(=O)N3C[C@@](C(=O)O)(N4CCN(NC(N)=O)C4=O)S[C@H]23)S(=O)(=O)O)cc1OC(C)=O` (stereo partly shown) [compound 20], the MIC in the assay with E. coli TK-3 (setting [2]) and with S. marcescens W-8 (setting [1]) was 0.78 µg/mL (≈ 1.15 µM) each time.
`NC(=O)NN1CCN([C@]2(C(=O)O)CN3C(=O)[C@@H](NC(=O)[C@@H](c4ccc(O)cc4)S(=O)(=O)O)[C@H]3S2)C1=O` [compound 40]: the minimum inhibitory concentration (MIC) in the assay on E. coli TK-3 (TK3, 20 h) amounted to 3.13 µg/mL (≈ 5.75 µM); against S. marcescens W-8 (W8, 20 h) it was 0.78 µg/mL (≈ 1.43 µM).
For `CCN1CCN(C(=O)NN2CCN([C@]3(C(=O)O)CN4C(=O)[C@@H](NC(=O)C(C(=O)O)c5ccccc5)[C@H]4S3)C2=O)C(=O)C1=O` (stereo partly shown) [compound 3] the same measures were 0.78 µg/mL (≈ 1.26 µM) and 0.78 µg/mL (≈ 1.26 µM).
Take `O=C(O)C=NN1CCN([C@]2(C(=O)O)CN3C(=O)[C@@H](NC(=O)C(C(=O)O)c4ccccc4)[C@H]3S2)C1=O` (stereo partly shown) [compound 9]: the MIC in the assay with E. coli TK-3 (setting [2]) turned out to be 25 µg/mL (≈ 49.5 µM); in the assay with S. marcescens W-8 (setting [1]) it was 12.5 µg/mL (≈ 24.7 µM).
The matching figures for `CNC(=O)NN1CCN([C@]2(C(=O)O)CN3C(=O)[C@@H](NC(=O)C(C(=O)O)c4ccc(O)cc4)[C@H]3S2)C1=O` (stereo partly shown) [compound 17]: 1.56 µg/mL (≈ 2.99 µM) and 1.56 µg/mL (≈ 2.99 µM).
For `NC(=O)NN1CCN([C@]2(C(=O)O)CN3C(=O)[C@@H](NC(=O)C(c4cc(O)c(O)cc4Cl)S(=O)(=O)O)[C@H]3S2)C1=O` (stereo partly shown) [compound 21] the same measures were 0.39 µg/mL (≈ 0.655 µM) and 0.39 µg/mL (≈ 0.655 µM).
In the case of `CON=C(C(=O)N[C@@H]1C(=O)N2C[C@@](C(=O)O)(N3CCN(N=C4SCCS4)C3=O)S[C@H]12)c1csc(N)n1` [compound 47], the MIC stood at 0.78 µg/mL (≈ 1.36 µM) against E. coli TK-3 (TK3, 20 h) and 6.25 µg/mL (≈ 10.9 µM) in the assay on S. marcescens W-8 (setting [1]).
As to `O=C(NN1CCN([C@]2(C(=O)O)CN3C(=O)[C@@H](NC(=O)C(C(=O)O)c4ccccc4)[C@H]3S2)C1=O)c1cc(=O)c(O)c[nH]1` (stereo partly shown) [compound 5], the MIC in the assay with E. coli TK-3 (TK3, 20 h) came out at 3.13 µg/mL (≈ 5.34 µM); against S. marcescens W-8 (W8, 20 h), 3.13 µg/mL (≈ 5.34 µM).
Take `O=C(O)C(C(=O)N[C@@H]1C(=O)N2C[C@@](C(=O)O)(N3CCN(N=C4SCCS4)C3=O)S[C@H]12)c1ccc(O)c(O)c1` (stereo partly shown) [compound 23]: the minimum inhibitory concentration (MIC) in the assay with E. coli TK-3 (setting [2]) and with S. marcescens W-8 (setting [1]) was 3.13 µg/mL (≈ 5.36 µM) in each case.
Regarding `O=C(O)CC(=O)NN1CCN([C@]2(C(=O)O)CN3C(=O)[C@@H](NC(=O)C(C(=O)O)c4ccc(O)cc4)[C@H]3S2)C1=O` (stereo partly shown) [compound 15], the minimal inhibitory concentration (MIC) in the assay on E. coli TK-3 (setting [2]) and with S. marcescens W-8 (setting [1]) was 12.5 µg/mL (≈ 22.7 µM) in each case.
Turning to `NC(=O)NN1CCN([C@]2(C(=O)O)CN3C(=O)[C@@H](NC(=O)C(C(=O)O)c4cc(O)c(O)cc4Cl)[C@H]3S2)C1=O` (stereo partly shown) [compound 25], the MIC stood at 6.25 µg/mL (≈ 11.2 µM) in the assay on E. coli TK-3 (setting [2]) and 12.5 µg/mL (≈ 22.4 µM) in the assay on S. marcescens W-8 (setting [1]).
`O=C(O)C(C(=O)N[C@@H]1C(=O)N2C[C@@](C(=O)O)(N3CCN(N=Cc4ccc(O)c(O)c4)C3=O)S[C@H]12)c1ccccc1` (stereo partly shown) [compound 4]: the MIC with E. coli TK-3 (setting [2]) and in the assay with S. marcescens W-8 (setting [1]) was 6.25 µg/mL (≈ 11 µM) throughout.
For `NC(=O)C=NN1CCN([C@]2(C(=O)O)CN3C(=O)[C@@H](NC(=O)C(C(=O)O)c4ccccc4)[C@H]3S2)C1=O` (stereo partly shown) [compound 32], the MIC in the assay with E. coli TK-3 (setting [2]) was 1.56 µg/mL (≈ 3.09 µM); in the assay on S. marcescens W-8 (setting [1]), 0.78 µg/mL (≈ 1.55 µM).
On to `C=CC=NN1CCN([C@]2(C(=O)O)CN3C(=O)[C@@H](NC(=O)C(C(=O)O)c4ccccc4)[C@H]3S2)C1=O` (stereo partly shown) [compound 10], for which the minimal inhibitory concentration (MIC) turned out to be 0.1 µg/mL (≈ 0.205 µM) in the assay with E. coli TK-3 (setting [2]) and 0.05 µg/mL (≈ 0.103 µM) in the assay with S. marcescens W-8 (W8, 20 h).
For the compound `O=C(O)C=CC=NN1CCN([C@]2(C(=O)O)CN3C(=O)[C@@H](NC(=O)C(c4cc(O)c(O)cc4Cl)S(=O)(=O)O)[C@H]3S2)C1=O` (stereo partly shown) [compound 48], the MIC with E. coli TK-3 (setting [2]) and in the assay with S. marcescens W-8 (setting [1]) was 0.1 µg/mL (≈ 0.158 µM) each time.
As for `NS(=O)(=O)NN1CCN([C@]2(C(=O)O)CN3C(=O)[C@@H](NC(=O)C(C(=O)O)c4ccc(O)cc4)[C@H]3S2)C1=O` (stereo partly shown) [compound 44], the MIC in the assay on E. coli TK-3 (setting [2]) and with S. marcescens W-8 (setting [1]) was 6.25 µg/mL (≈ 11.5 µM) throughout.
For `C=CC=NN1CCN([C@]2(C(=O)O)CN3C(=O)[C@@H](NC(=O)C(C(=O)O)c4ccc(O)cc4)[C@H]3S2)C1=O` (stereo partly shown) [compound 18], the MIC in the assay with E. coli TK-3 (TK3, 20 h) is at most 0.05 µg/mL; in the assay with S. marcescens W-8 (setting [1]), 0.1 µg/mL (≈ 0.199 µM).
For the compound `NC(=O)C=CC=NN1CCN([C@]2(C(=O)O)CN3C(=O)[C@@H](NC(=O)C(C(=O)O)c4ccccc4)[C@H]3S2)C1=O` (stereo partly shown) [compound 33], the MIC in the assay on E. coli TK-3 (setting [2]) came out at 0.39 µg/mL (≈ 0.735 µM); in the assay on S. marcescens W-8 (setting [1]) it was 0.2 µg/mL (≈ 0.377 µM).
The matching figures for `O=C(O)C(C(=O)N[C@@H]1C(=O)N2C[C@@](C(=O)O)(N3CCN(NS(=O)(=O)O)C3=O)S[C@H]12)c1ccc(O)cc1` (stereo partly shown) [compound 16]: 12.5 µg/mL (≈ 22.9 µM) and 12.5 µg/mL (≈ 22.9 µM).
As to `CC(=O)Oc1ccc(C(C(=O)N[C@@H]2C(=O)N3C[C@@](C(=O)O)(N4CCN(N=C5SCCS5)C4=O)S[C@H]23)S(=O)(=O)O)cc1OC(C)=O` (stereo partly shown) [compound 27], the MIC in the assay on E. coli TK-3 (setting [2]) amounted to 1.56 µg/mL (≈ 2.22 µM).

The values above are taken from patent publication US5185330A, “Penam derivatives and salts thereof, and antibacterial agent comprising the same” (Toyama Chemical Co., Ltd., priority 1989, dated 1993).
